# In US11020405B2, “Method for prevention or treatment of diabetic complications” (KANGWON NATIONAL UNIVERSITY UNIVERSITY-INDUSTRY COOPERATION …, priority 2017, dated 2021):
# Columns and labels:
# [1] = tested on: β-catenin; test: Analysis of adherens junction (β-catenin staining); assay type: cell-based, human; conditions: HRECs, 10 ng/mL VEGF 90 min with 20 μM midazolam, 5 μM BAPTA-AM, 1 mM NAC, 0.5 μM Trolox, 50 μM cystamine or 20 μM MDC (FIGS. 8, 9)
# Protocol: (§1) Purchased from Applied Cell Biology Research Institute (Cell Systems, Kirkland, Wash.), human retinal endothelial cells (HRECs) were cultured in an M19 medium, containing 20% FBS, 3 ng/mL bFGF, 5 U/mL heparin, 100 U/mL penicillin and […], in a 2% gelatin-coated plate.
# (§2) Before the following Test Examples 2 to 7, the HRECs were cultured for 6 hr in a medium containing 1% FBS and an antibiotic agent, thus preparing HRECs of Test Example 1.
# The HRECs of Test Example 1 were subjected to the respective treatments below and cultured for 30 min. Here, treatment with 10 ng/mL VEGF was performed for 90 min. Thereafter, the HRECs were treated with 1 mM 5-(biotinamido)pentylamine, incubated for 1 hr, fixed with 3.7% formaldehyde, treated with 0.2% triton X-100, treated with a blocking solution containing 138 mM NaCl, 0.1% Tween 20 and 2% BSA dissolved in a 20 mM Tris (pH 7.6) buffer, incubated for 30 min, incubated with a monoclonal β-catenin antibody (1:200; Santa Cruz Biotechnology) for 12 hr or more, incubated with a FITC-conjugated goat anti-mouse antibody, and measured using confocal microscopy. Some (the following i), ii), iii), iv)) of the results are shown in FIG. 8, and the β-catenin concentrations in the portions represented by the dotted lines in FIG. 8 are shown in FIG. 9. With reference to FIG. 9, 10 randomly selected cells were measured to determine the fluorescence intensity of single cells and thus quantify β-catenin.
# β-catenin, which is a protein that mediates adherens junction like VE-cadherin, was analyzed to evaluate adherens junction.
# [2] = tested on: human retinal endothelial cells (HRECs); test: Analysis of intracellular Ca^2+ (Fluo4-AM, confocal microscopy); assay type: cell-based; conditions: 10 ng/mL VEGF with 5 μM BAPTA-AM, 1 mM NAC, 0.5 μM Trolox, 50 μM cystamine or 20 μM MDC, 30 min (FIG. 2B)
# Protocol: as §1, §2
# With reference to FIG. 2A, the HRECs of Test Example 1 were subjected to the respective treatments below, stained with 2 μM Fluo4-AM at 37° C. for 30 min and then measured at time intervals of 10 sec using confocal microscopy (FV-300, Olympus, Tokyo, Japan).
# With reference to FIG. 2B, the HRECs of Test Example 1 were subjected to the respective treatments below, cultured for 30 min, stained with 2 μM Fluo4-AM at 37° C. for 30 min and then measured at time intervals of 10 sec using confocal microscopy.
# [3] = tested on: endothelial monolayer of HRECs; test: Analysis of cell permeability (FITC-dextran, Transwell); assay type: cell-based, human; conditions: HREC monolayer, 10 ng/mL VEGF 90 min with 20 μM midazolam, 5 μM BAPTA-AM, 1 mM NAC, 0.5 μM Trolox, 50 μM cystamine or 20 μM MDC; 40 kDa FITC-dextran 60 min (FIG. 7)
# Protocol: The HRECs were cultured (e.g. about 5 days) until the cell confluence thereof reached an appropriate level on gelatin-coated 0.4 μm polycarbonate membranes of Transwell Permeable Supports (Costar, Corning, N.Y.), followed by the respective treatments below and culture for 30 min. Here, treatment with 10 ng/mL VEGF was performed for 90 min. Thereafter, the HRECs were treated with 1 mg/mL 40 kDa FITC-dextran (Sigma-Aldrich), incubated for 60 min, after which the amount of FITC-dextran that was diffused into the lower chamber through the endothelial monolayer of HERCs was measured using a microplate spectrofluorometer (Molecular Devices, Sunnyvale, Calif.).
# [4] = tested on: VE-cadherin; test: Analysis of adherens junction (VE-cadherin staining); assay type: cell-based, human; conditions: HRECs, 10 ng/mL VEGF 90 min with 20 μM midazolam, 5 μM BAPTA-AM, 1 mM NAC, 0.5 μM Trolox, 50 μM cystamine or 20 μM MDC (FIGS. 5, 6)
# Protocol: as §1, §2
# The HRECs of Test Example 1 were subjected to the respective treatments below and cultured for 30 min. Here, treatment with 10 ng/mL VEGF was performed for 90 min. Thereafter, the HRECs were treated with 1 mM 5-(biotinamido)pentylamine, incubated for 1 hr, fixed with 3.7% formaldehyde, treated with 0.2% triton X-100, treated with a blocking solution containing 138 mM NaCl, 0.1% Tween 20 and 2% BSA dissolved in a 20 mM Tris (pH 7.6) buffer, incubated for 30 min, incubated with a monoclonal VE-cadherin antibody (1:200; Santa Cruz Biotechnology) for 12 hr or more (overnight), incubated with a FITC-conjugated goat anti-mouse antibody (1:200; Sigma-Aldrich), and then measured using confocal microscopy. Some (the following i), iii), iv), vi), ix)) of the results are shown in FIG. 5 and the VE-cadherin concentrations in the portions represented by the dotted lines in FIG. 5 are shown in FIG. 6. With reference to FIG. 6, 10 randomly selected cells were measured to determine the fluorescence intensity of single cells and thus quantify VE-cadherin.
# VE-cadherin, which is a protein that mediates adherens junction, was analyzed to evaluate adherens junction.
# [5] = tested on: human retinal endothelial cells (HRECs); test: Analysis of ROS of cells (H2DCFDA fluorescence); assay type: cell-based; conditions: 10 ng/mL VEGF with 20 μM midazolam, 5 μM BAPTA-AM, 1 mM NAC, 0.5 μM Trolox, 50 μM cystamine or 20 μM MDC (FIG. 3B)
# Protocol: as §1, §2
# With reference to FIG. 3A, the HRECs of Test Example 1 were treated with 0 to 20 μM midazolam, cultured for 30 min, treated with 10 ng/mL VEGF and 10 μM H2DCFDA (Molecular Probes, Eugene, Oreg.), stained for 10 min in a phenol-red-free low-serum medium, and then measured using confocal microscopy to thus determine the fluorescence intensity of single cells.
# With reference to FIG. 3B, the HRECs of Test Example 1 were subjected to the respective treatments below and cultured for 30 min. Upon treatment with 10 ng/mL VEGF, treatment with 10 μM H2DCFDA was performed therewith, or alternatively, treatment with 10 μM H2DCFDA was performed alone, followed by staining for 10 min in a phenol-red-free low-serum medium and then measurement via confocal microscopy to thus determine the fluorescence intensity of single cells.
# [6] = tested on: TGase; test: Identification of receptor of midazolam through TGase activity analysis; assay type: cell-based, human; conditions: HRECs, 0-50 μM flumazenil or 0-30 μM PK11195 1 hr, then 20 μM midazolam 30 min, then 10 ng/ml VEGF (FIG. 11B)
# Protocol: With reference to FIG. 11A, the HRECs of Test Example 1 were subjected to the respective treatments below, cultured for 2 hr, treated with 1 mM 5-(biotinamido)pentylamine, incubated for 1 hr, fixed with 3.7% formaldehyde, treated with 0.2% triton X-100, treated with a blocking solution containing 138 mM NaCl, 0.1% Tween 20 and 2% BSA dissolved in a 20 mM Tris (pH 7.6) buffer, incubated for 30 min, incubated with FITC-conjugated streptavidin (1:200, v/v) for 1 hr, and then measured using confocal microscopy to thus determine the fluorescence intensity of single cells.
# (§3) As will be described below, flumazenil was used as a GABAA receptor antagonist and PK11195 was used as a TSOP receptor antagonist.
# With reference to FIG. 11B, the HRECs of Test Example 1 were treated with 0 μM, 0.01 μM, 0.1 μM, 1 μM, 10 μM, 20 μM, and 50 μM flumazenil and 0 μM, 0.01 μM, 0.1 μM, 1 μM, 3 μM, 10 μM, and 30 μM PK11195, cultured for 1 hr, treated with 20 μM midazolam, cultured for 30 min, treated with 10 ng/ml VEGF, incubated for 10 min, treated with 1 mM 5-(biotinamido)pentylamine, incubated for 1 hr, fixed with 3.7% formaldehyde, treated with 0.2% triton X-100, treated with a blocking solution containing 138 mM NaCl, 0.1% Tween 20 and 2% BSA dissolved in a 20 mM Tris (pH 7.6) buffer, incubated for 30 min, incubated with FITC-conjugated streptavidin (1:200, v/v) for 1 hr, and then measured using confocal microscopy to thus determine the fluorescence intensity of single cells.
# [7] = tested on: human retinal endothelial cells (HRECs); test: Identification of receptor of midazolam through ROS concentration analysis; assay type: cell-based; conditions: 0-50 μM flumazenil or 0-30 μM PK11195 1 hr, then 20 μM midazolam 30 min, then 10 ng/ml VEGF (FIG. 10B)
# Protocol: With reference to FIG. 10A, the HRECs of Test Example 1 were subjected to the respective treatments below, cultured for 10 min, treated with 10 μM H2DCFDA, stained for 10 min in a phenol-red-free low-serum medium, and measured using confocal microscopy to thus determine the fluorescence intensity of single cells.
# as §3
# With reference to FIG. 10B, the HRECs of Test Example 1 were treated with 0 μM, 0.01 μM, 0.1 μM, 1 μM, 10 μM, 20 μM, and 50 μM flumazenil and 0 μM, 0.01 μM, 0.1 μM, 1 μM, 3 μM, 10 μM, and 30 μM PK11195, cultured for 1 hr, treated with 20 μM midazolam, cultured for 30 min, treated with 10 ng/ml VEGF, incubated for 10 min, treated with 10 μM H2DCFDA, stained for 10 min in a phenol-red-free low-serum medium, and then measured using confocal microscopy to thus determine the fluorescence intensity of single cells.
Compound,β-catenin concentration / adherens junction disruption due to VEGF [1],changes in intracellular Ca^2+ (VEGF-induced) compared to control [2],FITC-dextran diffused into lower chamber (cell permeability) / adherens junction disruption due to VEGF [3],VE-cadherin concentration / adherens junction disruption due to VEGF [4],ROS concentration (VEGF-induced) compared to control [5],TGase activity in midazolam- and VEGF-treated cells after receptor antagonist [6],ROS concentration in midazolam- and VEGF-treated cells after receptor antagonist [7]
CC(=O)OCOC(=O)CN(CC(=O)OCOC(C)=O)c1ccccc1OCCOc1ccccc1N(CC(=O)OCOC(C)=O)CC(=O)OCOC(C)=O [BAPTA-AM],the effect of preventing the adherens junction disruption was also observed,no significant changes in intracellular Ca^2+,the effect of preventing the adherens junction disruption was also observed,the effect of preventing the adherens junction disruption was also observed,no significant ROS concentration increase was observed,,
CN(C)c1cccc2c(S(=O)(=O)NCCCCCN)cccc12 [MDC],the effect of preventing the adherens junction disruption was also observed,intracellular Ca^2+ elevation was caused,the effect of preventing the adherens junction disruption was also observed,the effect of preventing the adherens junction disruption was also observed,ROS concentration was increased,,
CC(=O)N[C@@H](CS)C(=O)O [NAC],the effect of preventing the adherens junction disruption was also observed,intracellular Ca^2+ elevation was caused,the effect of preventing the adherens junction disruption was also observed,the effect of preventing the adherens junction disruption was also observed,no significant ROS concentration increase was observed,,
CCC(C)N(C)C(=O)c1cc2ccccc2c(-c2ccccc2Cl)n1 (stereo not drawn) [PK11195],,,,,,"no increase in TGase activity, regardless of the PK11195 concentration","no increase in ROS concentration, regardless of the PK11195 concentration"
Cc1c(C)c2c(c(C)c1O)CCC(C)(C(=O)O)O2 (stereo not drawn) [Trolox],the effect of preventing the adherens junction disruption was also observed,intracellular Ca^2+ elevation was caused,the effect of preventing the adherens junction disruption was also observed,the effect of preventing the adherens junction disruption was also observed,no significant ROS concentration increase was observed,,
NCCSSCCN [cystamine],the effect of preventing the adherens junction disruption was also observed,intracellular Ca^2+ elevation was caused,the effect of preventing the adherens junction disruption was also observed,the effect of preventing the adherens junction disruption was also observed,ROS concentration was increased,,
